Measurements from US20120225093A1, “Abrogating HIV-1 Infection via Drug-Induced Reactivation of Apoptosis” (UNIVERSITY OF MEDICINE AND DENTISTRY OF NEW JERSEY, priority 2010, published 2012).

Experiments:
H9-HIV cells [1] = test: Apoptosis in H9-HIV cells: annexin V binding, cell diameter, cell survival; type: cell-based; conditions: CPX 30 μM, DEF 200 μM; for increase in annexin-V binding, 7-AAD-negative cell population: by 24 hr
Protocol: Uninfected and uniformly HIV-1 (HTLV-IIIB) infected H9 cells, obtained from the NIH AIDS Research and References Reagent Program, were cultured at 37° C. in a humidified atmosphere (5% CO2, 95% humidity) using RPMI 1640 medium supplemented with 2 mM L-glutamine, […], […] and 20% fetal calf serum.
Viability, diameter, and cell number of PBMCs and H9 cells were measured by computerized image analysis of trypan blue exclusion (VI-CELL™; Beckman Coulter; Fullerton, Calif.). PBMCs were counted with an automated, multi-parameter hematology analyzer (CELL-DYN™; Abbott Laboratories, Abbott Park, Ill.).
(§1) The potential across the mitochondrial membrane of live cells was determined flow-cytometrically with the lipophilic cationic fluorochrome JC-1 (5,5′,6,6′-tetrachloro-1,1′,3,3′-tetraethylbenzimidazolcarbocyanine iodide) immediately after sample harvest (BD™ Mitoscreen Kit, BD Biosciences; San Diego, Calif.). DNA fragmentation was quantified flow-cytometrically, using a TUNEL (terminal deoxynucleotide transferase dUTP nick end-labeling) assay (APO-BRDU™; Phoenix Flow Systems; San Diego, Calif.) and a dual-color assay for annexin V binding and 7-AAD exclusion (Annexin V-PE 7-AAD Apoptosis Detection Kit I™; BD Biosciences Pharmingen, San Jose, Calif.). The apoptotic volume decrease of cells was assessed by the reduction of their diameter (VI-CELL™; Beckman Coulter; Fullerton, Calif.).
First, whether both drugs elicit apoptosis in H9-HIV cells was determined. The cells were exposed to CPX or DEF, and annexin-V binding, cell diameter and cell survival were assayed in a time-dependent manner. By 24 hr, drug treatment elicited a ˜5-fold increase in the percentage of the 7-AAD-negative cell population capable of binding annexin-V to exposed membrane phospholipid phosphatidylserine, with little further increase at 48 hr (FIG. 8A). Both drugs elicited a decrease in mean cell diameter of ˜15% within 24 hr and ˜30% within 48 hr, indicating volume constriction characteristic of apoptosis but not necrosis (FIG. 8B). Concomitantly, cell survival decreased ˜2 fold at 24 hr and ˜5 fold at 48 hr (FIG. 8C).

293T cells = test: Apoptosis and viability of untransfected 293T cells (annexin V / 7AAD); type: cell-based, human; conditions: within 24 hr at concentrations used
Protocol: The cells were grown in DME medium (Sigma) and Jurkat cells in RPMI medium (Sigma), both supplemented with penicillin, streptomycin and 8% FBS. Quantitation of apoptosis and viability was performed with a BD FACSCalibur™ system using Annexin V-PE Apoptosis Detection Kit I (BD Biosciences, San Jose Calif.).

eIF5A:DHS complex = target: T1, eIF5A:DHS complex (Homo sapiens, UniProt P49366); test: Co-immunoprecipitation of eIF5A with DHS from 293T cell extracts; type: cell-based; conditions: 293T transfected with FLAG-DHS
T1 construct: expressed in transfected cells; host or cells: 293T cells (FLAG-DHS transfected, eIF5A endogenous)
T1 sequence (P49366 1-369): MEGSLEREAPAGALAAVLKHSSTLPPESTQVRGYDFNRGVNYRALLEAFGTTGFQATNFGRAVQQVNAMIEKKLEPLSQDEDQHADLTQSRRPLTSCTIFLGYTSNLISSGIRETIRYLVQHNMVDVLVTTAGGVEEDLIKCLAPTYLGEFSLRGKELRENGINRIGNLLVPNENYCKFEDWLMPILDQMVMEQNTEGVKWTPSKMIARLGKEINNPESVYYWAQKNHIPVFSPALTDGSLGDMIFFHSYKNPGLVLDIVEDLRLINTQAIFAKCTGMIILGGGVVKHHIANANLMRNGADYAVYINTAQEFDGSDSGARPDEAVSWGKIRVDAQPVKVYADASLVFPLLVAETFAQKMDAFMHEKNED
Protocol: Immunoprecipitation and immunoblotting experiments were carried out as described previously in Hoque et al. Mol Cell Biol 2003, 23:1688-1702.
eIF5A forms tight complexes with its modifying enzymes. Unmodified eIF5A (lysine-50) immunoprecipitates with DHS and deoxyhypusyl-eIF5A interacts with DOHH in vitro. It was discovered that the deoxyhypusyl-eIF5A:DOHH complex formed in vivo can be detected by immunoprecipitation from cell extracts. Taking advantage of this finding, the effects of the drugs on the enzyme-substrate interaction were tested. FLAG-eIF5A was expressed in 293T cells and complexes that immunoprecipitated with anti-FLAG antibody were immunoblotted and probed with antibodies against DOHH. […] As a further control, the DHS inhibitor GC7 was included in this assay. […] As expected, none of the compounds affected the immunoprecipitation of FLAG-eIF5A (FIG. 2D, middle panel) or the expression of endogenous eIF5A (FIG. 2D, bottom panel). Reciprocally, the interaction between endogenous eIF5A and tagged DOHH was inhibited by CPX and DEF (FIG. 2E, right). Similarly, the interaction of endogenous eIF5A with tagged DHS was inhibited by GC7 (FIG. 2E, left) but resistant to CPX and DEF. It is concluded that CPX and DEF, but not P2 or DFOX, target DOHH and inhibit its interaction with its substrate, deoxyhypusylelF5A.

H9-HIV cells [2] = test: Mitochondrial membrane potential (JC-1) in H9-HIV cells; type: cell-based; conditions: for Δψ collapse at low drug concentrations: 5 and 15 μM CPX, 50 and 100 μM DEF; for collapse of Δψ, infected versus uninfected cells: 24 hr, 30 μM CPX, 200 μM DEF
Protocol: as §1
Next the effect of the drugs on apoptosis in H9 and H9-HIV cells was examined. Both CPX and DEF increased the collapse of Δψ in a manner that was dose-dependent and accentuated by viral infection (FIGS. 8E and F). […] Thus, exposure to CPX or DEF counteracted the HIV-mediated reduction of Δψ collapse and rendered infected cells more susceptible than uninfected cells to an early step in drug-induced apoptosis.

For `Cc1cc(C2CCCCC2)n(O)c(=O)c1` [CPX, 6-cyclohexyl-1-hydroxy-4-methylpyridin-2[1H]-one], which “decrease in cell survival” value (H9-HIV cells [1]; at 24 hr) is on record?
Its value is about 2 fold.

And the “decrease in cell survival” value (H9-HIV cells [1]; at 48 hr)?
Its value is about 5 fold.

And the “increase in annexin-V binding, 7-AAD-negative cell population” value (H9-HIV cells [1])?
The value was about 5 fold.

And the “decrease in mean cell diameter” value (H9-HIV cells [1]; within 24 hr)?
The value was about 15%.

What about the “decrease in mean cell diameter” value (H9-HIV cells [1]; within 48 hr) of the same molecule?
Its value is about 30%.

And the 293T cell death (293T cells)?
Its 293T cell death is “marginal 293T cell death”.

What about the “interaction of endogenous eIF5A with tagged DHS” value (eIF5A:DHS complex) of the same molecule?
The value was “resistant”.

And the “Δψ collapse at low drug concentrations” value (H9-HIV cells [2])?
Its value is “enhanced Δψ collapse even at low drug concentrations”.

What about the “collapse of Δψ, infected versus uninfected cells” value (H9-HIV cells [2]) of the same molecule?
Its value is “significantly increased collapse of Δψ compared to uninfected cells”.

With `Cc1c(O)c(=O)ccn1C` [DEF, 3-hydroxy-1,2-dimethylpyridin-4(1H)-one] as the molecule, how does the “decrease in cell survival” value (H9-HIV cells [1]; at 24 hr) read?
Its value is about 2 fold.

What about the “decrease in cell survival” value (H9-HIV cells [1]; at 48 hr) of the same molecule?
The value was about 5 fold.

What about the “increase in annexin-V binding, 7-AAD-negative cell population” value (H9-HIV cells [1]) of the same molecule?
The value was about 5 fold.

And the “decrease in mean cell diameter” value (H9-HIV cells [1]; within 24 hr)?
Its value is about 15%.

And the “decrease in mean cell diameter” value (H9-HIV cells [1]; within 48 hr)?
Its value is about 30%.

And the 293T cell death (293T cells)?
The 293T cell death was “marginal 293T cell death”.

And the “interaction of endogenous eIF5A with tagged DHS” value (eIF5A:DHS complex)?
The value was “resistant”.

And the “Δψ collapse at low drug concentrations” value (H9-HIV cells [2])?
The value was “enhanced Δψ collapse even at low drug concentrations”.

And the “collapse of Δψ, infected versus uninfected cells” value (H9-HIV cells [2])?
Its value is “significantly increased collapse of Δψ compared to uninfected cells”.
